ChEMBL document CHEMBL1681705, “Optimisation of ITK inhibitors through successive iterative design cycles” (Bioorg Med Chem Lett, 2011)

Assays:
[1] = target: Mitogen-activated protein kinase 9 (Homo sapiens) (UniProt P45984); assay: Inhibition of JNK2a2 at 1 uM; conditions: values are per cent of control
[2] = target: Tyrosine-protein kinase JAK2 (Homo sapiens) (UniProt O60674); assay: Inhibition of JAK2 at 1 uM; values are per cent of control
[3] = target: T1, Cytoplasmic tyrosine-protein kinase BMX (Homo sapiens) (UniProt P51813); assay: Inhibition of Bmx at 0.1 uM; values are per cent of control
T1 sequence (whole entry): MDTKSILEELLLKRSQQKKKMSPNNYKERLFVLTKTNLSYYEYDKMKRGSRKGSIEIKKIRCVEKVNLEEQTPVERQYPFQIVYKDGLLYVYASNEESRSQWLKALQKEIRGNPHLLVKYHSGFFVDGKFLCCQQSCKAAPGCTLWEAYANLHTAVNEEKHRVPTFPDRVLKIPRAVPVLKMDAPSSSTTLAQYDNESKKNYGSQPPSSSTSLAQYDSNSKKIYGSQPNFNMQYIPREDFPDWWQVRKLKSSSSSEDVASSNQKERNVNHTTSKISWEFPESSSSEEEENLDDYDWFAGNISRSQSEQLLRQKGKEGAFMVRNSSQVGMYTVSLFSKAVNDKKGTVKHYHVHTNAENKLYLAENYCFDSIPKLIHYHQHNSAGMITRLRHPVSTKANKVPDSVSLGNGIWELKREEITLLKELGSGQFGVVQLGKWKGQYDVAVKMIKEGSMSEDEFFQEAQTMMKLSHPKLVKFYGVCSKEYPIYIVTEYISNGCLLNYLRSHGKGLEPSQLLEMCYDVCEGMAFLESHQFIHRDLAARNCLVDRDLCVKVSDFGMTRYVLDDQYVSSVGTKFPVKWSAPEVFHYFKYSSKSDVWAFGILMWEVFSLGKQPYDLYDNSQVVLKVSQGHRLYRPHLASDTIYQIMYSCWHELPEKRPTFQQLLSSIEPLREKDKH

[4] = target: Tyrosine-protein kinase Fer (Homo sapiens) (UniProt P16591); assay: Inhibition of Fer at 0.1 uM; values are per cent of control
[5] = target: Tyrosine-protein kinase Lck (Homo sapiens) (UniProt P06239); assay: Inhibition of Lck at 0.1 uM; values are per cent of control
[6] = target: Serine/threonine-protein kinase pim-1 (Homo sapiens) (UniProt P11309); assay: Inhibition of Pim-1 at 1 uM; values are per cent of control
[7] = target: Serine/threonine-protein kinase pim-2 (Homo sapiens) (UniProt Q9P1W9); assay: Inhibition of Pim-2 at 1 uM; values are per cent of control
Chain of Serine/threonine-protein kinase pim-2 (Homo sapiens) (Q9P1W9 whole entry, looked up): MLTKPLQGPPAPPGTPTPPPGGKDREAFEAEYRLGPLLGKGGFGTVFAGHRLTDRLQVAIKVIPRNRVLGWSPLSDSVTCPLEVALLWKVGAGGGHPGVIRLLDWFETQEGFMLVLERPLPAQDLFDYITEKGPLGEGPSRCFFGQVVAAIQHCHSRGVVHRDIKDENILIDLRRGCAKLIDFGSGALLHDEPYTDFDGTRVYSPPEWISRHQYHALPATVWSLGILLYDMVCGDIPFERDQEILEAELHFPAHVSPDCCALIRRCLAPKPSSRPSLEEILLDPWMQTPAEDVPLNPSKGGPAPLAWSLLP

[8] = target: T2, Serine/threonine-protein kinase STK11 (Homo sapiens) (UniProt Q15831); assay: Inhibition of LKB1 at 0.1 uM; values are per cent of control
T2 sequence (whole entry): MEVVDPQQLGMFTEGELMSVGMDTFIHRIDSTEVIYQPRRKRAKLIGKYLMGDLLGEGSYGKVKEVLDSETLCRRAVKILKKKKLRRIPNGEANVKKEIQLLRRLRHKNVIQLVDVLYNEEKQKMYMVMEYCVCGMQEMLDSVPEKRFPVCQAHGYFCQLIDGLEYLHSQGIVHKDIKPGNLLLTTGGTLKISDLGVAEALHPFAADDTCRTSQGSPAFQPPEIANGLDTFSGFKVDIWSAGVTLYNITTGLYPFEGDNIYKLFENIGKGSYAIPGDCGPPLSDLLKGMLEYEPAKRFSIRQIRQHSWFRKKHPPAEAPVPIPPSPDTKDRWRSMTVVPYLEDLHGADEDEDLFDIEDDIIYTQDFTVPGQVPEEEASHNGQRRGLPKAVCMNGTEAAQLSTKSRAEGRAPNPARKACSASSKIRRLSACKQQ

[9] = target: Serine/threonine-protein kinase N2 (Homo sapiens) (UniProt Q16513); assay: Inhibition of PRK2 at 0.1 uM; values are per cent of control
Chain of Serine/threonine-protein kinase N2 (Homo sapiens) (Q16513 whole entry, looked up): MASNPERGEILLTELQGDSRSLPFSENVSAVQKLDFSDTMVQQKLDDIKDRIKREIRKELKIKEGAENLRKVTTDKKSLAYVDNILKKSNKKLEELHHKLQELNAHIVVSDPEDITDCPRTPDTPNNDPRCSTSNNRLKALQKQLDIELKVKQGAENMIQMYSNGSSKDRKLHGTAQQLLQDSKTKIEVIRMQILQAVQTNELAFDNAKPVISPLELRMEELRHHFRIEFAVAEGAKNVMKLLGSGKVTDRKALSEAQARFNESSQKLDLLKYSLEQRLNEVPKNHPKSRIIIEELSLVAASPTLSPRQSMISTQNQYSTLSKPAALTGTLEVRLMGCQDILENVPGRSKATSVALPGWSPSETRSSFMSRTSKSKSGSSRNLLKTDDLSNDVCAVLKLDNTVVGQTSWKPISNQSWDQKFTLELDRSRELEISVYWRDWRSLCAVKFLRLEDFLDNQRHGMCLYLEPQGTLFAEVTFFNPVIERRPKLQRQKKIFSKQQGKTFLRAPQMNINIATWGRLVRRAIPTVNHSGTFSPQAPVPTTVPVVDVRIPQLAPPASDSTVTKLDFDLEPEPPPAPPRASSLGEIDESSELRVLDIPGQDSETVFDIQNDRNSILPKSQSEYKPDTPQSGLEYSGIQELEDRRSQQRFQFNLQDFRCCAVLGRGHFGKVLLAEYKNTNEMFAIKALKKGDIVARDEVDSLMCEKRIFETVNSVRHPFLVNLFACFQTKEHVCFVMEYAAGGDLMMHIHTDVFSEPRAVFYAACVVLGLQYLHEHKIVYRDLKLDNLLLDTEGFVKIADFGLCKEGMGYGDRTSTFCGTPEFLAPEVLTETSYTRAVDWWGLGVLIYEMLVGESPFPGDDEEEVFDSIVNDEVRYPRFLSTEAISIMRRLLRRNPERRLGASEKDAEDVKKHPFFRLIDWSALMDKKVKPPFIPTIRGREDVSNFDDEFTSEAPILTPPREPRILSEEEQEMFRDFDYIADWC

[10] = target: Protein-tyrosine kinase 2-beta (Homo sapiens) (UniProt Q14289); assay: Inhibition of Pyk2 at 0.1 uM; values are per cent of control
[11] = target: Ribosomal protein S6 kinase alpha-1 (Homo sapiens) (UniProt Q15418); assay: Inhibition of Rsk1 at 0.1 uM; values are per cent of control
[12] = target: Mast/stem cell growth factor receptor Kit (Homo sapiens) (UniProt P10721); assay: Inhibition of c-Kit at 0.1 uM; values are per cent of control
Chain of Mast/stem cell growth factor receptor Kit (Homo sapiens) (P10721 whole entry): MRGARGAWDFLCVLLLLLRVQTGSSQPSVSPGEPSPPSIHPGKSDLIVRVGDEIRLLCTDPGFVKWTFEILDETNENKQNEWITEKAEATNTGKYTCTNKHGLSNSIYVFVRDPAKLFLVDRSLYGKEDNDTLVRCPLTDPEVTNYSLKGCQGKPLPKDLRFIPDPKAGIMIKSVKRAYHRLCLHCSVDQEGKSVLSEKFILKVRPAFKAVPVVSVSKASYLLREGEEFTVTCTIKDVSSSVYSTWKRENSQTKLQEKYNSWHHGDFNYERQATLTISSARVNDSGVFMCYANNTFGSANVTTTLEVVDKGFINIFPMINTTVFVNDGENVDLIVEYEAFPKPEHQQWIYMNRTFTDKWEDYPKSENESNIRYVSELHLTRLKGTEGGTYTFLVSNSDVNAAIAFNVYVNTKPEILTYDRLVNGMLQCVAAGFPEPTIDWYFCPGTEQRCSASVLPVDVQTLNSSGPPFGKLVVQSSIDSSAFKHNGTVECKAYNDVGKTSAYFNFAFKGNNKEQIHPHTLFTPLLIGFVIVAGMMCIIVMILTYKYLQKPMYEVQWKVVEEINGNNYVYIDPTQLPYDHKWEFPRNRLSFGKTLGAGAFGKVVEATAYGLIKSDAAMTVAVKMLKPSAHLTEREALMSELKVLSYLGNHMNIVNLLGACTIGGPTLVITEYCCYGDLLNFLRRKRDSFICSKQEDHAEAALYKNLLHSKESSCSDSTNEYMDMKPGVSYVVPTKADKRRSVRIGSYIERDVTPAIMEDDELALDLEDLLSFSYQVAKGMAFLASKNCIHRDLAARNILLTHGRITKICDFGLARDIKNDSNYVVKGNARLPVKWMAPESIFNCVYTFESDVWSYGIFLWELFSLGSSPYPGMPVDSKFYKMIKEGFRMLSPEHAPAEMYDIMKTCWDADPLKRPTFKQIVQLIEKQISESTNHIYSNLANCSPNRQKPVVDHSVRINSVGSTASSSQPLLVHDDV

[13] = target: Fibroblast growth factor receptor 1 (Homo sapiens) (UniProt P11362); assay: Inhibition of FGFR1 at 0.1 uM; values are per cent of control
[14] = target: T3, Mitogen-activated protein kinase 12 (Homo sapiens) (UniProt P53778); assay: Inhibition of SAPK3 at 0.1 uM; values are per cent of control
T3 sequence (whole entry): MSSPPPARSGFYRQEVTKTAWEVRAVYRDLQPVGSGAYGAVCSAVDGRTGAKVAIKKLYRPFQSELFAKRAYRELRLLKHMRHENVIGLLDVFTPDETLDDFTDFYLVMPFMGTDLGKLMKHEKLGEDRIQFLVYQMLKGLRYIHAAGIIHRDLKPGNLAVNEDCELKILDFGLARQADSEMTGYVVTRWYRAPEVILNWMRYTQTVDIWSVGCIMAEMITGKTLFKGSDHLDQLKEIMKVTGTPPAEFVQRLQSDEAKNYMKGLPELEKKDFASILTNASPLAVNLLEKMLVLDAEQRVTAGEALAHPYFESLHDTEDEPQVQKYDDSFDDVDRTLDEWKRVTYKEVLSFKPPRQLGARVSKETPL

[15] = target: Protein kinase C alpha type (Homo sapiens) (UniProt P17252); assay: Inhibition of PKCalpha at 1 uM; values are per cent of control
[16] = target: Protein kinase C theta type (Homo sapiens) (UniProt Q04759); assay: Inhibition of PKCtheta at 0.1 uM; values are per cent of control
Chain of Protein kinase C theta type (Homo sapiens) (Q04759 whole entry, looked up): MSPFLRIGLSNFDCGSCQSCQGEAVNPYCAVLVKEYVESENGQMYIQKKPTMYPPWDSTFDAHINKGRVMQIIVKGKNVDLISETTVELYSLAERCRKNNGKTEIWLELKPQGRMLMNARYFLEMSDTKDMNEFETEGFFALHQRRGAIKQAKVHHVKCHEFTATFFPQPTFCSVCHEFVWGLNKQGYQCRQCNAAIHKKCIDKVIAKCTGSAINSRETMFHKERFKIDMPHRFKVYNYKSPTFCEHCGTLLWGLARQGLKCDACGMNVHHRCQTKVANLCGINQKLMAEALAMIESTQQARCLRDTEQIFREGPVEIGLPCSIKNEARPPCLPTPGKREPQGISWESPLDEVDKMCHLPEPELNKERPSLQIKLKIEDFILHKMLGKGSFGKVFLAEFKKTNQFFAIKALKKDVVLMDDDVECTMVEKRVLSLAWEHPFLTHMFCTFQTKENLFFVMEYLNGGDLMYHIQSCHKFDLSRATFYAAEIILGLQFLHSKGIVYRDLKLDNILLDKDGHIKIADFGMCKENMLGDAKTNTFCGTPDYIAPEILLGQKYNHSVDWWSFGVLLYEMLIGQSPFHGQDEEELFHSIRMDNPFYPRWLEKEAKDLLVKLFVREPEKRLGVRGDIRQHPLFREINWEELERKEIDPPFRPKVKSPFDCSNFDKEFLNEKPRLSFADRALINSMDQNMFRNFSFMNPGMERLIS

[17] = target: Glycogen synthase kinase-3 beta (Homo sapiens) (UniProt P49841); assay: Inhibition of GSK3-beta at 0.1 uM; values are per cent of control
Chain of Glycogen synthase kinase-3 beta (Homo sapiens) (P49841 whole entry, looked up): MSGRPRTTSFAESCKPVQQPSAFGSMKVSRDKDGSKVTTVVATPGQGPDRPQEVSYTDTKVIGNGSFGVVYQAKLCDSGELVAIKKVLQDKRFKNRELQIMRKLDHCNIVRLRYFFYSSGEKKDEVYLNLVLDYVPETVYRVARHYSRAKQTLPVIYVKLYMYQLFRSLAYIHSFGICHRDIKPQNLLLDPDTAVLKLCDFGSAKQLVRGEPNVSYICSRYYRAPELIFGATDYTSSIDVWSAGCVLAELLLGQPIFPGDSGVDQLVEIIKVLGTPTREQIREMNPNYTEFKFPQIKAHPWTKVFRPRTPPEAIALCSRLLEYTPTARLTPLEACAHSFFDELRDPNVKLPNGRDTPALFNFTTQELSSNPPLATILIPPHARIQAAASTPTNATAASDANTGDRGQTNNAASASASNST

[18] = target: Cyclin-dependent kinase 7/ cyclin H (Homo sapiens) (UniProt P51946+P50613); assay: Inhibition of CDK7/cyclin H/MAT1 at 1 uM; values are per cent of control

Chain of Mitogen-activated protein kinase 9 (Homo sapiens) (P45984 whole entry, looked up): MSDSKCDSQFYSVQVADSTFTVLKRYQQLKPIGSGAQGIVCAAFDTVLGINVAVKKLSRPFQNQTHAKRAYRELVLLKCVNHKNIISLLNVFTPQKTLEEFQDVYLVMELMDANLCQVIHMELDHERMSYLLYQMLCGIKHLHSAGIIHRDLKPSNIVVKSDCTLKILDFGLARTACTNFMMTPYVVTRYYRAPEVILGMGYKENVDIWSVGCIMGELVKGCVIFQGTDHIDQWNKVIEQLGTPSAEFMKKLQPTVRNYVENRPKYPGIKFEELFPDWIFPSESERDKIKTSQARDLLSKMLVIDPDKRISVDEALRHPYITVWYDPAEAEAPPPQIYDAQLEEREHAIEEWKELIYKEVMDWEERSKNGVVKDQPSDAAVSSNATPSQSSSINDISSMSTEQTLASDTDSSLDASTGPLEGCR
Chain of Tyrosine-protein kinase JAK2 (Homo sapiens) (O60674 whole entry): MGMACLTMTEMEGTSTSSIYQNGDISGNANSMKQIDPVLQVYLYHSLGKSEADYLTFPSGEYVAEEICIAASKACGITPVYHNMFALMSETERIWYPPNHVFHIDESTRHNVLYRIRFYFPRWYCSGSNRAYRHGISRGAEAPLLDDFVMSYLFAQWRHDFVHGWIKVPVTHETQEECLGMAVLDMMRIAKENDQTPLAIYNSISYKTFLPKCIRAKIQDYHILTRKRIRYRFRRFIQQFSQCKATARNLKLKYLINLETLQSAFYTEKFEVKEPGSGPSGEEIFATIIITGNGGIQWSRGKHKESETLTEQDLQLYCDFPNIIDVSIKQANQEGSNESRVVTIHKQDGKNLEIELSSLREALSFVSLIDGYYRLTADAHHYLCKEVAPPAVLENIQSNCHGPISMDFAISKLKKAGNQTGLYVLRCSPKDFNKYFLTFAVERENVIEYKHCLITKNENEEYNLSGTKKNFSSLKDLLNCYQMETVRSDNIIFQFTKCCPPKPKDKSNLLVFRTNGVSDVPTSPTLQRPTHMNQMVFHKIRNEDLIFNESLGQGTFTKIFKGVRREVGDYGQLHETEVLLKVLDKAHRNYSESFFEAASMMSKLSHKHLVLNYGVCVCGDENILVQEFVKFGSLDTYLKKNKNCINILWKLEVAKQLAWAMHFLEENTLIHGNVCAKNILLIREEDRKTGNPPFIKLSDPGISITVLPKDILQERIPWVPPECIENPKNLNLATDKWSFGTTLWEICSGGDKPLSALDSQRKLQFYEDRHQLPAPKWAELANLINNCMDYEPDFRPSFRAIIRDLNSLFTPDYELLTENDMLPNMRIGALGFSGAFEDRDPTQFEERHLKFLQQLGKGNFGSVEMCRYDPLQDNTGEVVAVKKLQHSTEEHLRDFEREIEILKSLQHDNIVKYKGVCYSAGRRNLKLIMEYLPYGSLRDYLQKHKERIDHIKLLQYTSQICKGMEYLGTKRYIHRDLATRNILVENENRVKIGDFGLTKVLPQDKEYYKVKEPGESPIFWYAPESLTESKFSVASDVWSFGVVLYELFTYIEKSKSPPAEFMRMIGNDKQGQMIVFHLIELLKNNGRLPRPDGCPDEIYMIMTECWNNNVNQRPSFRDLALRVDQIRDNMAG

Row | residual activity [1] [%] | residual activity [2] [%] | residual activity [3] [%] | residual activity [4] [%] | residual activity [5] [%] | residual activity [6] [%] | residual activity [7] [%] | residual activity [8] [%] | residual activity [9] [%] | residual activity [10] [%] | residual activity [11] [%] | residual activity [12] [%] | residual activity [13] [%] | residual activity [14] [%] | residual activity [15] [%] | residual activity [16] [%] | residual activity [17] [%] | residual activity [18] [%] | Compound
1 | 88 | 2 | 45 | 49 | 61 | 93 | 101 | 97 | 25 | 66 | 97 | 143 | 2 | 104 | 36 | 45 | 97 | 28 | Cc1ccc2cc(-c3n[nH]c4ccc(NC5CCN(Cc6ccccc6)CC5)cc34)[nH]c2c1
2 | 87 | 0 | 15 | 5 | 27 | 91 | 105 | 104 | 93 | 71 | 6 | 92 | 0 | 92 | 27 | 74 | 97 | 10 | Cc1ccc2cc(-c3n[nH]c4ccc(NC5CCNC5)cc34)[nH]c2c1 (stereo unspecified)
